In US20190029252A1, “Use of Herbicide-tolerant Protein” (BEIJING DABEINONG TECHNOLOGY GROUP CO., LTD., priority 2016, published 2019):

How the values were obtained:
Format in all cases: in vivo
[1] = system: Gm chloroplastic ALT-1-01 soybean plants; test: Glyphosate tolerance of soybean plants, herbicide damage rate; details: 840 g ae/ha (1-fold field concentration), 14 DAT
Text: (§1) The herbicide tolerance effects of Gm cytoplasmic ALT-1-01 soybean plants, Gm chloroplastic ALT-1-01 soybean plants, Gm cytoplasmic ALT-2-01 soybean plants, Gm chloroplastic ALT-2-01 soybean plants, Gm cytoplasmic ALT-3-01 soybean plants, Gm chloroplastic ALT-3-01 soybean plants and wild-type soybean plants on glyphosate were detected (at seedling stage), respectively.
(§2) 2 strains from Gm cytoplasmic ALT-1-01 soybean plants, Gm chloroplastic ALT-1-01 soybean plants, Gm cytoplasmic ALT-2-01 soybean plants, Gm chloroplastic ALT-2-01 soybean plants, Gm cytoplasmic ALT-3-01 soybean plants, Gm chloroplastic ALT-3-01 soybean plants and wild-type soybean plants were respectively taken each, and 10-15 plants were selected from each strain and tested. The plants above were sprayed with glyphosate (840 g ae/ha, 1-fold field concentration) and a blank solvent (water). The herbicide damage rate was measured for each plant according to the phytotoxicity symptoms 14 days after spraying (14 DAT): herbicide damage rate (%)=Σ(number of damaged plants at the same level× level number)/(total number of plants×highest level).

[2] = system: Gm chloroplastic ALT-2-01 soybean plants; test: as above; details: 840 g ae/ha (1-fold field concentration), 14 DAT
Text: as §1, §2

[3] = system: Gm chloroplastic ALT-3-01 soybean plants; test: as above; details: 840 g ae/ha (1-fold field concentration), 14 DAT
Text: as §1, §2

[4] = system: Gm cytoplasmic ALT-1-01 soybean plants; test: as above; details: 840 g ae/ha (1-fold field concentration), 14 DAT
Text: as §1, §2

[5] = system: Gm cytoplasmic ALT-2-01 soybean plants; test: as above; details: 840 g ae/ha (1-fold field concentration), 14 DAT
Text: as §1, §2

[6] = system: Gm cytoplasmic ALT-3-01 soybean plants; test: as above; details: 840 g ae/ha (1-fold field concentration), 14 DAT
Text: as §1, §2

[7] = system: wild-type soybean plants (CK1); test: as above; details: 840 g ae/ha (1-fold field concentration), 14 DAT
Text: as §1, §2

[8] = system: At chloroplastic ALT-1-01 T1 plants; test: Herbicide tolerance of Arabidopsis thaliana T1 plants, sprayed, resistance classes counted 14 days after spraying; details: sprayed at 1-fold field concentration
Text: (§3) T1 transformants were initially selected from the background of untransformed seeds using a glufosinate selection scheme. About 40000 T1 seeds were screened, and 380 T1 positive transformants (PAT gene) were identified with a transformation efficiency of about 0.95%. The plants that were transformed with the recombinant expression vector DBN100632 were Arabidopsis thaliana plants having an ALT-1-01 nucleotide sequence located in the cytoplasm introduced (At cytoplasmic ALT-1-01), and the plants that were transformed with the recombinant expression vector DBN100631 were Arabidopsis thaliana plants having an ALT-1-01 nucleotide sequence located in the chloroplast introduced (At chloroplastic ALT-1-01); the plants that were transformed with the recombinant expression vector DBN100634 were Arabidopsis thaliana plants having an ALT-2-01 nucleotide sequence located in the cytoplasm introduced (At cytoplasmic ALT-2-01), and the plants that were transformed with the recombinant expression vector DBN100633 were Arabidopsis thaliana plants having an ALT-2-01 nucleotide sequence located in the chloroplast introduced (At chloroplastic ALT-2-01); and the plants that were transformed with the recombinant expression vector DBN100636 were Arabidopsis thaliana plants having an ALT-3-01 nucleotide sequence located in the cytoplasm introduced (At cytoplasmic ALT-3-01), and the plants that were transformed with the recombinant expression vector DBN100635 were Arabidopsis thaliana plants having an ALT-3-01 nucleotide sequence located in the chloroplast introduced (At chloroplastic ALT-3-01).
(§4) Plants were counted for the resistance situations 14 days after spraying: those having a consistent growth status with the blank solvent (water) group after 14 days were classified as highly resistant plants, those having a bolting height less than ½ of that of the blank solvent (water) group after 14 days were classified as moderately resistant plants, those still not capable of bolting after 14 days were classified as poorly resistant plants, and those dead after 14 days were classified as non-resistant plants. Since each Arabidopsis thaliana T1 plant was an independent transformation event, a significant difference in individual T1 responses could be expected at a given dose.
as §4, with “situation” for “situations”

[9] = system: At chloroplastic ALT-2-01 T1 plants; test: as above; details: sprayed at 1-fold field concentration
Text: as §3, §4
as §4, with “situation” for “situations”

[10] = system: At chloroplastic ALT-3-01 T1 plants; test: as above; details: sprayed at 1-fold field concentration
Text: as §3, §4
as §4, with “situation” for “situations”

[11] = system: At cytoplasmic ALT-1-01 T1 plants; test: as above; details: sprayed at 1-fold field concentration
Text: as §3, §4
as §4, with “situation” for “situations”

[12] = system: At cytoplasmic ALT-2-01 T1 plants; test: as above; details: sprayed at 1-fold field concentration
Text: as §3, §4
as §4, with “situation” for “situations”

[13] = system: At cytoplasmic ALT-3-01 T1 plants; test: as above; details: sprayed at 1-fold field concentration
Text: as §3, §4
as §4, with “situation” for “situations”

[14] = system: wild-type Arabidopsis thaliana plants; test: Herbicide tolerance of Arabidopsis thaliana plants, sprayed, resistance classes counted 14 days after spraying; details: wild-type; sprayed at 1-fold field concentration; 14 days after spraying
Text: as §3, §4
as §4, with “situation” for “situations”

[15] = system: transformed Arabidopsis thaliana T1 plants (ALT-1, ALT-2 and ALT-3); test: Herbicide tolerance of transgenic Arabidopsis thaliana T1 plants, overall conclusion; details: all transformed Arabidopsis thaliana T1 plants; 1-fold field concentration
Text: as §4
as §4, with “situation” for “situations”

Row | Structure (SMILES) | Highly resistant (number of plants) [8] | Moderately resistant (number of plants) [8] | Non-resistant (number of plants) [8] | Poorly resistant (number of plants) [8] | Highly resistant (number of plants) [9] | Moderately resistant (number of plants) [9] | Non-resistant (number of plants) [9] | Poorly resistant (number of plants) [9] | Highly resistant (number of plants) [10] | Moderately resistant (number of plants) [10] | Non-resistant (number of plants) [10] | Poorly resistant (number of plants) [10] | Highly resistant (number of plants) [11] | Moderately resistant (number of plants) [11] | Non-resistant (number of plants) [11] | Poorly resistant (number of plants) [11] | Highly resistant (number of plants) [12] | Moderately resistant (number of plants) [12] | Non-resistant (number of plants) [12] | Poorly resistant (number of plants) [12] | other results
1 | O=C(O)CNCP(=O)(O)O [glyphosate, N-phosphonomethylglycine] |  |  |  |  |  |  |  |  |  |  |  |  |  |  |  |  |  |  |  |  | glyphosate herbicide damage rate [1]: ~0%; glyphosate herbicide damage rate [2]: ~0%; glyphosate herbicide damage rate [3]: ~0%; glyphosate herbicide damage rate [4]: ~0%; glyphosate herbicide damage rate [5]: ~0%; glyphosate herbicide damage rate [6]: ~0%; glyphosate herbicide damage rate [7]: not less than 90%
2 | COC(=O)c1ccc(I)cc1S(=O)(=O)NC(=O)Nc1nc(C)nc(OC)n1 [iodosulfuron-methyl] | 0 | 0 | 30 | 0 | 0 | 0 | 31 | 0 | 0 | 0 | 32 | 0 | 0 | 0 | 29 | 0 | 0 | 0 | 30 | 0 | Highly resistant (number of plants) [13]: 0; Moderately resistant (number of plants) [13]: 0; Non-resistant (number of plants) [13]: 30; Poorly resistant (number of plants) [13]: 0; Highly resistant (number of plants) [14]: 0; Moderately resistant (number of plants) [14]: 0; Non-resistant (number of plants) [14]: 29; Poorly resistant (number of plants) [14]: 0; ability of the transformed plants to degrade the herbicide (in words) [15]: did not exhibit the ability to degrade
3 | COC(=O)c1ccc(CNS(C)(=O)=O)cc1S(=O)(=O)NC(=O)Nc1nc(OC)cc(OC)n1 [mesosulfuron] | 0 | 0 | 32 | 0 | 0 | 0 | 30 | 0 | 0 | 0 | 32 | 0 | 0 | 0 | 29 | 0 | 0 | 0 | 32 | 0 | Highly resistant (number of plants) [13]: 0; Moderately resistant (number of plants) [13]: 0; Non-resistant (number of plants) [13]: 30; Poorly resistant (number of plants) [13]: 0; Highly resistant (number of plants) [14]: 0; Moderately resistant (number of plants) [14]: 0; Non-resistant (number of plants) [14]: 28; Poorly resistant (number of plants) [14]: 0; ability of the transformed plants to degrade the herbicide (in words) [15]: did not exhibit the ability to degrade
4 | Cc1cc(C)nc(NC(=O)NS(=O)(=O)c2ccccc2C(=O)OC2COC2)n1 [oxasulfuron] | 0 | 0 | 30 | 0 | 0 | 0 | 30 | 0 | 0 | 0 | 31 | 0 | 0 | 0 | 28 | 0 | 0 | 0 | 30 | 0 | Highly resistant (number of plants) [13]: 0; Moderately resistant (number of plants) [13]: 0; Non-resistant (number of plants) [13]: 30; Poorly resistant (number of plants) [13]: 0; Highly resistant (number of plants) [14]: 0; Moderately resistant (number of plants) [14]: 0; Non-resistant (number of plants) [14]: 28; Poorly resistant (number of plants) [14]: 0; ability of the transformed plants to degrade the herbicide (in words) [15]: did not exhibit the ability to degrade
